Laboratory results: ChEMBL document CHEMBL1201862, “PubChem BioAssay data set” (2004)
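In this assay, cells in 96-well plates receive the compound at five concentrations for 48 hours. Endpoints are linearly interpolated between the surrounding concentrations. GI50 is the concentration that inhibits growth by half.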 The source made the active and inactive calls. Rule as the data show it: active = GI50 up to about 1.1 µM and inactive = higher.

Legend:
Assay in all cases: DTP human tumour cell line panel, 48 h
[1] = tested on: NCI/ADR-RES
[2] = tested on: RPMI-8226
[3] = tested on: Hs-578T
[4] = tested on: OVCAR-4
[5] = tested on: SK-MEL-2
[6] = tested on: HCC 2998
[7] = tested on: MDA-MB-231
[8] = tested on: HCT-15
[9] = tested on: MDA-N
[10] = tested on: MCF7
[11] = tested on: Malme-3M
[12] = tested on: OVCAR-8
[13] = tested on: HL-60
[14] = tested on: SK-OV-3
[15] = tested on: UACC-257
[16] = tested on: SF-295
[17] = tested on: HOP-92
[18] = tested on: EKVX
[19] = tested on: SNB-75

Row | Structure (SMILES) | GI50 [1] | GI50 [2] | GI50 [3] | GI50 [4] | GI50 [5] | GI50 [6] | GI50 [7] | GI50 [8] [µM] | GI50 [9] | GI50 [10] | GI50 [11] | GI50 [12] | GI50 [13] | GI50 [14] | GI50 [15] | GI50 [16] | GI50 [17] | GI50 [18] | GI50 [19]
1 | OC[C@@H](O)[C@H](O)[C@@H](O)/C=N/Nc1ccc(Cl)nn1 | > 100 µM (inactive) | > 100 µM (inactive) | > 100 µM (inactive) | > 100 µM (inactive) | > 100 µM (inactive) | > 100 µM (inactive) | > 100 µM (inactive) | > 100 | > 100 µM (inactive) | > 100 µM (inactive) | > 100 µM (inactive) | > 100 µM (inactive) | > 100 µM (inactive) | > 100 µM (inactive) | > 100 µM (inactive) | > 100 µM (inactive) | > 100 µM (inactive) | > 100 µM (inactive) | –
2 | CC(C)CC1c2[nH]c3ccccc3c2C[C@H]2C(=O)NC(COC(C)(C)C)C(=O)N12 (stereo not given in full) | 20.8 µM (inactive) | 23.9 µM (inactive) | 13.3 µM (inactive) | 30.5 µM (inactive) | 19.9 µM (inactive) | – | 18.7 µM (inactive) | 26.9 | 21.8 µM (inactive) | 31.6 µM (inactive) | 19.6 µM (inactive) | 33.1 µM (inactive) | 26.4 µM (inactive) | > 100 µM (inactive) | 19 µM (inactive) | 17.3 µM (inactive) | 31.8 µM (inactive) | 24.9 µM (inactive) | –
3 | O=C1/C(=C/c2ccccc2S)N=C(c2ccccc2)N1c1ccc2c(c1)Sc1cc(N3C(=O)/C(=C/c4ccccc4S)N=C3c3ccccc3)ccc1N2 | 35.5 µM (inactive) | 19 µM (inactive) | 25.6 µM (inactive) | 32.6 µM (inactive) | 23.8 µM (inactive) | 20.5 µM (inactive) | 28.4 µM (inactive) | 31.6 | 23.8 µM (inactive) | 21 µM (inactive) | – | 19.4 µM (inactive) | – | 17.8 µM (inactive) | 20.4 µM (inactive) | 16.8 µM (inactive) | 14.9 µM (inactive) | 20.7 µM (inactive) | 15.8 µM (inactive)
4 | COC(=O)c1c2c(c3[nH]c4ccccc4c3c1C(=O)OC)C(=O)C1=C(C2=O)C2(Cl)C(Cl)C(Cl)C1(Cl)C2(Cl)Cl (stereo not given) | 2.62 µM (inactive) | 1.19 µM (inactive) | 3.13 µM (inactive) | 1.84 µM (inactive) | – | 2.91 µM (inactive) | 1.85 µM (inactive) | 1.48 | 0.6 µM (active) | 0.705 µM (active) | 1.82 µM (inactive) | 1.75 µM (inactive) | 2.29 µM (inactive) | 4.36 µM (inactive) | – | 3.63 µM (inactive) | 1.77 µM (inactive) | 3.92 µM (inactive) | 2.39 µM (inactive)
5 | CCCc1c(O)nc2ccccc2c1O | > 100 µM (inactive) | > 100 µM (inactive) | > 100 µM (inactive) | > 100 µM (inactive) | – | > 100 µM (inactive) | > 100 µM (inactive) | > 100 | > 100 µM (inactive) | > 100 µM (inactive) | > 100 µM (inactive) | > 100 µM (inactive) | > 100 µM (inactive) | – | > 100 µM (inactive) | > 100 µM (inactive) | > 100 µM (inactive) | > 100 µM (inactive) | > 100 µM (inactive)
6 | c1coc(-c2nccc3c2[nH]c2ccccc23)c1 | > 100 µM (inactive) | – | > 100 µM (inactive) | > 100 µM (inactive) | > 100 µM (inactive) | > 100 µM (inactive) | > 100 µM (inactive) | > 100 | > 100 µM (inactive) | > 100 µM (inactive) | > 100 µM (inactive) | > 100 µM (inactive) | > 100 µM (inactive) | > 100 µM (inactive) | > 100 µM (inactive) | > 100 µM (inactive) | 35 µM (inactive) | > 100 µM (inactive) | –
7 | CCOC(=O)CCC(NC(=O)c1ccc(OCc2nc3ccccc3n3cccc23)cc1)C(=O)OCC (stereo not given) | > 100 µM (inactive) | – | 64.4 µM (inactive) | 59.7 µM (inactive) | > 100 µM (inactive) | > 100 µM (inactive) | > 100 µM (inactive) | 50.6 | > 100 µM (inactive) | 39.2 µM (inactive) | > 100 µM (inactive) | 33.5 µM (inactive) | 11.5 µM (inactive) | > 100 µM (inactive) | 87.5 µM (inactive) | 64.3 µM (inactive) | 45.6 µM (inactive) | > 100 µM (inactive) | 29.2 µM (inactive)
8 | COc1ccc2c(c1)-c1[nH]c3ccc(OC)cc3c1CC2 | 11.4 µM (inactive) | 15.6 µM (inactive) | 13.4 µM (inactive) | 14.9 µM (inactive) | 14.5 µM (inactive) | 15.6 µM (inactive) | 17.3 µM (inactive) | 10.6 | 14.7 µM (inactive) | 24.9 µM (inactive) | 15 µM (inactive) | 13.9 µM (inactive) | – | 18.6 µM (inactive) | 17.7 µM (inactive) | 13.1 µM (inactive) | 19.2 µM (inactive) | 7.28 µM (inactive) | 13.5 µM (inactive)
9 | CSC(=S)CC(O)[C@@H]1CC2c3ccccc3C1c1ccccc12 (stereo not given in full) | 12.6 µM (inactive) | 3.11 µM (inactive) | 15 µM (inactive) | 12.1 µM (inactive) | – | 12.8 µM (inactive) | 23.8 µM (inactive) | 9.73 | 11.7 µM (inactive) | 13.9 µM (inactive) | 19.7 µM (inactive) | 14.9 µM (inactive) | 2.54 µM (inactive) | 15.3 µM (inactive) | – | 16.6 µM (inactive) | 17.4 µM (inactive) | – | > 10 µM (inactive)
10 | COC1CC(C)(NC(=O)C(F)(F)F)C2OC(c3ccccc3)OCC2O1 (stereo not given) | > 100 µM (inactive) | > 100 µM (inactive) | > 100 µM (inactive) | > 100 µM (inactive) | – | – | > 100 µM (inactive) | > 100 | > 100 µM (inactive) | > 100 µM (inactive) | > 100 µM (inactive) | > 100 µM (inactive) | > 100 µM (inactive) | > 100 µM (inactive) | > 100 µM (inactive) | > 100 µM (inactive) | > 100 µM (inactive) | > 100 µM (inactive) | > 100 µM (inactive)
11 | CSc1ccc(/C=C2\N=C(c3ccccc3)N(c3nc4c(Cl)cc(Cl)cc4s3)C2=O)cc1 | 25.2 µM (inactive) | 22.5 µM (inactive) | 21.9 µM (inactive) | 21.2 µM (inactive) | 20.2 µM (inactive) | 29 µM (inactive) | 18.9 µM (inactive) | 28.5 | 17 µM (inactive) | 24.9 µM (inactive) | – | 38.5 µM (inactive) | 21.6 µM (inactive) | 25.9 µM (inactive) | 25.2 µM (inactive) | 24.3 µM (inactive) | 32.8 µM (inactive) | 13.6 µM (inactive) | 36.6 µM (inactive)
12 | CN(Cc1cnc2nc(N)nc(N)c2n1)c1ccc(C(=O)NCCCS(=O)(=O)O)cc1 | > 100 µM (inactive) | > 100 µM (inactive) | > 100 µM (inactive) | > 100 µM (inactive) | > 100 µM (inactive) | > 100 µM (inactive) | > 100 µM (inactive) | > 100 | > 100 µM (inactive) | > 100 µM (inactive) | > 100 µM (inactive) | > 100 µM (inactive) | – | > 100 µM (inactive) | > 100 µM (inactive) | > 100 µM (inactive) | 0.0264 µM (active) | > 100 µM (inactive) | > 100 µM (inactive)
13 | CCOC(=O)c1ccc(NCC#CCN2CCCCC2)cc1 | > 100 µM (inactive) | > 100 µM (inactive) | > 100 µM (inactive) | > 100 µM (inactive) | > 100 µM (inactive) | – | > 100 µM (inactive) | 89.9 | 60.4 µM (inactive) | 73.8 µM (inactive) | > 100 µM (inactive) | – | 60.1 µM (inactive) | > 100 µM (inactive) | – | – | > 100 µM (inactive) | > 100 µM (inactive) | –
14 | CN(O)C(=O)/C=C/c1ccc(OCc2cccc(Cl)c2)cc1 | 19.7 µM (inactive) | 27.5 µM (inactive) | 61.7 µM (inactive) | 19.6 µM (inactive) | 23.8 µM (inactive) | 23.6 µM (inactive) | 43.9 µM (inactive) | 12.9 | 43.1 µM (inactive) | 48.6 µM (inactive) | – | 16.3 µM (inactive) | 18 µM (inactive) | 25.6 µM (inactive) | 51.8 µM (inactive) | 22.8 µM (inactive) | 24.3 µM (inactive) | 26.5 µM (inactive) | 26.4 µM (inactive)
15 | Nc1ccc(Oc2ccc(C3(c4ccc(Oc5ccc(N)c(O)c5)cc4)C4CC5CC(C4)CC3C5)cc2)cc1O | 2.35 µM (inactive) | 1.97 µM (inactive) | 2.24 µM (inactive) | 2.43 µM (inactive) | 1.86 µM (inactive) | 1.65 µM (inactive) | 1.82 µM (inactive) | 1.73 | 2.03 µM (inactive) | 1.67 µM (inactive) | 2.3 µM (inactive) | 1.7 µM (inactive) | 2.11 µM (inactive) | 2.45 µM (inactive) | 2.12 µM (inactive) | 3.06 µM (inactive) | 2.92 µM (inactive) | 2.2 µM (inactive) | –
16 | O=C(NCCCCCCCCNC(=O)c1cc(-c2ccccc2)nc2ccccc12)c1cc(-c2ccccc2)nc2ccccc12 | > 100 µM (inactive) | > 100 µM (inactive) | 28.7 µM (inactive) | > 100 µM (inactive) | – | – | > 100 µM (inactive) | > 100 | > 100 µM (inactive) | > 100 µM (inactive) | > 100 µM (inactive) | 94 µM (inactive) | > 100 µM (inactive) | > 100 µM (inactive) | > 100 µM (inactive) | > 100 µM (inactive) | > 100 µM (inactive) | > 100 µM (inactive) | 38.6 µM (inactive)
